From ChEMBL document CHEMBL4725339, “Discovery of USP7 small-molecule allosteric inhibitors” (Bioorg Med Chem Lett, 2020)
Active and inactive are the calls of the source. The rule behind the calls is not given here.

What was measured:
[1] = species on record: Homo sapiens; test: Selectivity index, ratio of IC50 for USP47 (unknown origin) to IC50 for recombinant full length USP7 (unknown origin) using di-ubiquitin as substrate by fluorescence based assay
[2] = species on record: Homo sapiens; test: Selectivity index, ratio of IC50 for USP1 (unknown origin) to IC50 for recombinant full length USP7 (unknown origin) using di-ubiquitin as substrate by fluorescence based assay
[3] = species on record: Homo sapiens; test: Selectivity index, ratio of IC50 for USP14 (unknown origin) to IC50 for recombinant full length USP7 (unknown origin) using di-ubiquitin as substrate by fluorescence based assay
[4] = target: T1, Ubiquitin carboxyl-terminal hydrolase 1 (Homo sapiens, UniProt O94782); test: Inhibition of USP1 (unknown origin)
T1 sequence (O94782 whole entry): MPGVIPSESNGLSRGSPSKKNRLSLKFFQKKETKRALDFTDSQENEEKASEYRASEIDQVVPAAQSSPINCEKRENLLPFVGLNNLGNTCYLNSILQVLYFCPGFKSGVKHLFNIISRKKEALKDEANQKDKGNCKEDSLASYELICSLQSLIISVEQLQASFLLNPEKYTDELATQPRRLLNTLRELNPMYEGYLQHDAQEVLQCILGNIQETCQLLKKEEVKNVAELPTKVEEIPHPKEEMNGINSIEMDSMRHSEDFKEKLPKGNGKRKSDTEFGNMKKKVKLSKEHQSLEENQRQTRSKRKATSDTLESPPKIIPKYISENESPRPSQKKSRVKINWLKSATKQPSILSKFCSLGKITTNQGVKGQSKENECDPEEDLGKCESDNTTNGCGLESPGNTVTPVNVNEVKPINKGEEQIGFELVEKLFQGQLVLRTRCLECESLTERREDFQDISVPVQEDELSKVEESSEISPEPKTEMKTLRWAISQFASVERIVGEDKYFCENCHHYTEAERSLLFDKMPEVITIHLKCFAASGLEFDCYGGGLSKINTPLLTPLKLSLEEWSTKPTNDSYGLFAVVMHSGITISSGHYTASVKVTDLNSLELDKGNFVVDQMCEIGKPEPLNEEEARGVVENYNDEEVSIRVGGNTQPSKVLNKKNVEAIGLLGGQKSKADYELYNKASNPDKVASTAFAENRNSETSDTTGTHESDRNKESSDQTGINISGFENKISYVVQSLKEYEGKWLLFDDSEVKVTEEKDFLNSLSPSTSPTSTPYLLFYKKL

[5] = target: Ubiquitin carboxyl-terminal hydrolase 14 (Homo sapiens, UniProt P54578); test: Inhibition of USP14 (unknown origin)
Ubiquitin carboxyl-terminal hydrolase 14, sequence (P54578 whole entry): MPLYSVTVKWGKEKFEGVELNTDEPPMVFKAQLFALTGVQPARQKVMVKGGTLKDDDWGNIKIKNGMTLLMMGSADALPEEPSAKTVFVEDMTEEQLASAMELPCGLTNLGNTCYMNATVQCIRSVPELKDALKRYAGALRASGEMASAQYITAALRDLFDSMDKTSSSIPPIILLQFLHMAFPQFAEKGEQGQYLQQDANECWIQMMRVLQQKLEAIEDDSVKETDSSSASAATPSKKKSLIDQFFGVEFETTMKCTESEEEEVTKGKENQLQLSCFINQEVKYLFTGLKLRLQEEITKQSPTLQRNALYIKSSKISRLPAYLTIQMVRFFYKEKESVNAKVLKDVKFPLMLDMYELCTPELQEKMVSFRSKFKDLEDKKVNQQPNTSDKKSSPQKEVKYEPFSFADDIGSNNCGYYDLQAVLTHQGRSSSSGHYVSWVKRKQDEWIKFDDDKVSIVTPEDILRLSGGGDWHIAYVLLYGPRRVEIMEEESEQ

[6] = target: T2, Ubiquitin carboxyl-terminal hydrolase 7 (Homo sapiens, UniProt Q93009); test: Inhibition of recombinant full length USP7 (unknown origin) using di-ubiquitin as substrate by fluorescence based assay
Target sequence in this assay (Q93009 whole entry): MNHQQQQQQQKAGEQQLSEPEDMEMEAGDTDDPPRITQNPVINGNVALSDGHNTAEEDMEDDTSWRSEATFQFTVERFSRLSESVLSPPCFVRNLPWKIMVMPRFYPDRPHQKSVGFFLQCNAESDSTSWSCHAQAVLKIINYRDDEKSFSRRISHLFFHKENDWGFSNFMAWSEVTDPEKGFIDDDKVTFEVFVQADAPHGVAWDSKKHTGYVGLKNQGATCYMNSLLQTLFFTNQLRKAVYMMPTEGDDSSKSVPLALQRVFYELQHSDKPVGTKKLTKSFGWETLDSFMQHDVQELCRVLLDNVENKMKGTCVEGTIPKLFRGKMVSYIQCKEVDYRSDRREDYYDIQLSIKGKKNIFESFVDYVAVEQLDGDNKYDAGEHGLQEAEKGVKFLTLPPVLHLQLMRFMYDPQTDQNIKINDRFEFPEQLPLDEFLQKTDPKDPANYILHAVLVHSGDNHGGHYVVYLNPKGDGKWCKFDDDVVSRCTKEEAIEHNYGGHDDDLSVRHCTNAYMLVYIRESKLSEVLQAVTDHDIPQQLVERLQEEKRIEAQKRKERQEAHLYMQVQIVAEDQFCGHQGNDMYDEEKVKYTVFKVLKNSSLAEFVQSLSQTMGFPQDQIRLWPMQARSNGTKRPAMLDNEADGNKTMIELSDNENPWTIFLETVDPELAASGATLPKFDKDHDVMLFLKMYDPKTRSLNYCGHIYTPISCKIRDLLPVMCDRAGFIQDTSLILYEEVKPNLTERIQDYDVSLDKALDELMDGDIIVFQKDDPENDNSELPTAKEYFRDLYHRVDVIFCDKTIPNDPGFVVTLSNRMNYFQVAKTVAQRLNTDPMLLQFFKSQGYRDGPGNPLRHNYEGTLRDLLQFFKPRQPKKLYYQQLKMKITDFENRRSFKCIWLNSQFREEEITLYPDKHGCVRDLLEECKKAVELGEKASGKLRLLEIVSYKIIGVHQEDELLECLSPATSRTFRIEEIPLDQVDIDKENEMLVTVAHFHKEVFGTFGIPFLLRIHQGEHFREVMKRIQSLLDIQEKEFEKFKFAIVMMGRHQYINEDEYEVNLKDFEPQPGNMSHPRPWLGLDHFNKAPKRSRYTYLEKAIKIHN

[7] = target: T3, Ubiquitin carboxyl-terminal hydrolase 47 (Homo sapiens, UniProt Q96K76); test: Inhibition of USP47 (unknown origin)
T3 sequence (Q96K76 whole entry): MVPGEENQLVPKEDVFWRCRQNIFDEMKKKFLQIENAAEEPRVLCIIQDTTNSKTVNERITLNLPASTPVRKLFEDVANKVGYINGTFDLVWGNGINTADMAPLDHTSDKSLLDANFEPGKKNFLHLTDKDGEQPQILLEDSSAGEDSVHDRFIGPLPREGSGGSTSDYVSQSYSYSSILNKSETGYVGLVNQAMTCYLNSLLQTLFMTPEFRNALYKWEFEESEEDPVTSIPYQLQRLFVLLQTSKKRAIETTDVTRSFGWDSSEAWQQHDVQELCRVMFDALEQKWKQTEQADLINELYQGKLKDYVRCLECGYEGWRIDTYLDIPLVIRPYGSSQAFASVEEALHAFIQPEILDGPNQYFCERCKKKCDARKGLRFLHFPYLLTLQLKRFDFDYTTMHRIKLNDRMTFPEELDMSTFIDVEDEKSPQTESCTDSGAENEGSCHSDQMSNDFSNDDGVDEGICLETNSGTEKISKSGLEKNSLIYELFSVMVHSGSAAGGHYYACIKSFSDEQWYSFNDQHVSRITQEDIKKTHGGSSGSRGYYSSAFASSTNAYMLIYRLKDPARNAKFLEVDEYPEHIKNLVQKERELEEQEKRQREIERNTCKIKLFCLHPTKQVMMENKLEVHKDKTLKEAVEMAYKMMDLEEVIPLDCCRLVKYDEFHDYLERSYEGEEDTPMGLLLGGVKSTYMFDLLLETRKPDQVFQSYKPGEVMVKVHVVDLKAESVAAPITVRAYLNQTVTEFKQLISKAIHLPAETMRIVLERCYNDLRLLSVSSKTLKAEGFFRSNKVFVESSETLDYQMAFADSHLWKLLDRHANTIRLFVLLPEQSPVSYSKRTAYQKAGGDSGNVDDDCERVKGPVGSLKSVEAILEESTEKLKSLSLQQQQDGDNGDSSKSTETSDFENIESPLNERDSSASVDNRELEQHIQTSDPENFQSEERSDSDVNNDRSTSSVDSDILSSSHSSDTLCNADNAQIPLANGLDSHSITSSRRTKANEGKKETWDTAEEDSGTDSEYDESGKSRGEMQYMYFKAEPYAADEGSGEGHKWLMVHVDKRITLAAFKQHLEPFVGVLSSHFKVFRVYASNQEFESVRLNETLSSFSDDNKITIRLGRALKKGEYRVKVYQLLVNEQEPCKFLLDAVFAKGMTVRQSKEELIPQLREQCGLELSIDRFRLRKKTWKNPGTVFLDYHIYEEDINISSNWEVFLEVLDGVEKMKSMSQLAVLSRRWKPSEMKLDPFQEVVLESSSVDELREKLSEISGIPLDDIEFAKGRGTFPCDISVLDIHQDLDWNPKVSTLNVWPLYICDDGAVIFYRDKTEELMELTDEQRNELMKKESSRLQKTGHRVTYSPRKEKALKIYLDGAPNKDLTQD

[8] = target: T2, Ubiquitin carboxyl-terminal hydrolase 7; test: Inhibition of recombinant human His-tagged USP7 (208 to 560 residues) expressed in Hi-five Sf9 cells using monoubiquitinated ubiquitin-rhodamine as substrate incubated for 1 hr by fluorescence based assay
Target sequence in this assay (Q93009 whole entry): as the sequence (Q93009 whole entry) above

[9] = target: T2, Ubiquitin carboxyl-terminal hydrolase 7; test: Inhibition of recombinant human C-terminal His-tagged N-terminal GST-tagged full length USP7 using di-ubiquitin as substrate preincubated for 10 mins followed by substrate addition and measured after 60 mins by TR-FRET assay
Target sequence in this assay (Q93009 whole entry): as the sequence (Q93009 whole entry) above

[10] = target: T2, Ubiquitin carboxyl-terminal hydrolase 7; test: Binding affinity to USP7 (unknown origin) by 1H-NMR-STD analysis
Target sequence in this assay (Q93009 whole entry, looked up): as the sequence (Q93009 whole entry) above

[11] = target: T2, Ubiquitin carboxyl-terminal hydrolase 7; test: Binding affinity to USP7 (unknown origin) by T2 relaxation experiment based analysis
Target sequence in this assay (Q93009 whole entry): as the sequence (Q93009 whole entry) above

[12] = Aqueous solubility of compound; assay type: physicochemical; conditions: water (aqueous)
[13] = target: T2, Ubiquitin carboxyl-terminal hydrolase 7; test: Allosteric binding affinity to USP7 catalytic domain (unknown origin) at Met328, Trp285, Gly284, Gln405 and Gly313 residues by NMR-15N-1H TROSY spectral titration analysis
Target sequence in this assay (Q93009 whole entry): as the sequence (Q93009 whole entry) above

[14] = target: T2, Ubiquitin carboxyl-terminal hydrolase 7; test: Allosteric binding affinity to USP7 catalytic domain (unknown origin) at His403, Gln351, Leu304, Ser353, Met328, Trp285 and Gly284 residues at 1.12 mM by NMR-15N-1H TROSY spectral titration analysis
Target sequence in this assay (Q93009 whole entry, looked up): as the sequence (Q93009 whole entry) above

[15] = target: T2, Ubiquitin carboxyl-terminal hydrolase 7; test: Binding affinity to USP7 (unknown origin) by 1H-1H-NOESY experiment based analysis
Target sequence in this assay (Q93009 whole entry, looked up): as the sequence (Q93009 whole entry) above

[16] = target: T2, Ubiquitin carboxyl-terminal hydrolase 7; test: Allosteric binding affinity to USP7 catalytic domain (unknown origin) at Met328 residues by NMR-15N-1H TROSY spectral titration analysis
Target sequence in this assay (Q93009 whole entry): as the sequence (Q93009 whole entry) above

CNc1nc2ccccn2c1-c1ccc(O)cc1
Ratio IC50 [1]: > 2 | Ratio IC50 [2]: > 2 | Ratio IC50 [3]: > 2 | IC50 [4]: > 100 µM | IC50 [5]: > 100 µM | IC50 [6]: 16 µM | IC50 [7]: > 100 µM

CN(C)c1nc2ccccn2c1-c1ccc(O)cc1
Ratio IC50 [1]: > 2 | Ratio IC50 [2]: > 2 | Ratio IC50 [3]: > 2 | IC50 [4]: > 100 µM | IC50 [5]: > 100 µM | IC50 [6]: 24 µM | IC50 [7]: > 100 µM

Cc1ccc2nc(N)c(-c3ccc(O)cc3)n2c1
Ratio IC50 [1]: > 2 | Ratio IC50 [2]: > 2 | Ratio IC50 [3]: > 2 | IC50 [4]: > 100 µM | IC50 [5]: > 100 µM | IC50 [6]: 39 µM | IC50 [7]: > 100 µM

COc1ccc(-c2c(N)nc3ccccn23)cc1
Ratio IC50 [1]: > 2 | Ratio IC50 [2]: > 2 | Ratio IC50 [3]: > 2 | IC50 [4]: > 100 µM | IC50 [5]: > 100 µM | IC50 [6]: 38 µM | IC50 [7]: > 100 µM

O=C(C[C@@H](C(F)F)n1ccc(F)n1)N1CCC(O)(Cn2cnc3c(cnn3-c3ccc(F)cc3)c2=O)CC1
IC50 [8]: 0.052 µM

Nc1nc2cc(C(F)(F)F)ccn2c1-c1ccc(O)cc1
Ratio IC50 [1]: > 2 | Ratio IC50 [2]: > 2 | Ratio IC50 [3]: > 2 | IC50 [4]: > 100 µM | IC50 [5]: > 100 µM | IC50 [6]: 42 µM | IC50 [7]: > 100 µM

Nc1nc2ccc(C(F)(F)F)cn2c1-c1ccc(O)cc1
Ratio IC50 [1]: > 2 | Ratio IC50 [2]: > 2 | Ratio IC50 [3]: > 2 | IC50 [4]: > 100 µM | IC50 [5]: > 100 µM | IC50 [6]: 48 µM | IC50 [7]: > 100 µM

CCc1c(-c2ccc(C(=O)NC)nc2)cnc(N)c1-c1ccc(O)cc1
IC50 [9]: 1.3 µM

Cc1ccn2c(-c3ccc(O)cc3)c(N)nc2c1
Ratio IC50 [1]: > 2 | Ratio IC50 [2]: > 2 | Ratio IC50 [3]: > 2 | IC50 [4]: > 100 µM | IC50 [5]: > 100 µM | IC50 [6]: 27 µM | IC50 [7]: > 100 µM

CC(=O)Nc1nc2ccccn2c1-c1ccc(O)cc1
Activity [10]: Active | Kd [11]: 540 µM | solubility [12]: > 800 µM | Kd [13]: 680 µM | Activity [14]: Active | Activity [15]: Active | IC50 [4]: > 100 µM | IC50 [5]: > 100 µM | IC50 [6]: 34 µM | IC50 [7]: > 100 µM | Kd [16]: 580 µM

Nc1nc2ccccn2c1-c1ccc(O)cc1
Ratio IC50 [1]: > 2 | Ratio IC50 [2]: > 2 | Ratio IC50 [3]: > 2 | IC50 [4]: > 100 µM | IC50 [5]: > 100 µM | IC50 [6]: 24 µM | IC50 [7]: > 100 µM

Nc1nc2cc(C3CCNCC3)ccn2c1-c1ccc(O)cc1
Ratio IC50 [1]: > 2 | Ratio IC50 [2]: > 2 | Ratio IC50 [3]: > 2 | IC50 [4]: > 100 µM | IC50 [5]: > 100 µM | IC50 [6]: 5.3 µM | IC50 [7]: > 100 µM

Nc1nc2c(C(F)(F)F)cccn2c1-c1ccc(O)cc1
Ratio IC50 [1]: > 2 | Ratio IC50 [2]: > 2 | Ratio IC50 [3]: > 2 | IC50 [4]: > 100 µM | IC50 [5]: > 100 µM | IC50 [6]: 26 µM | IC50 [7]: > 100 µM

CC(C)Nc1nc2ccccn2c1-c1ccc(O)cc1
Ratio IC50 [1]: > 2 | Ratio IC50 [2]: > 2 | Ratio IC50 [3]: > 2 | IC50 [4]: > 100 µM | IC50 [5]: > 100 µM | IC50 [6]: 7.9 µM | IC50 [7]: > 100 µM

Cc1cccn2c(-c3ccc(O)cc3)c(N)nc12
Ratio IC50 [1]: > 2 | Ratio IC50 [2]: > 2 | Ratio IC50 [3]: > 2 | IC50 [4]: > 100 µM | IC50 [5]: > 100 µM | IC50 [6]: 8.8 µM | IC50 [7]: > 100 µM
